Laboratory results from PubChem BioAssay AID328 (DTP/NCI, 2004).
Values joined by “and” are separate entries in the source; they are usually repeats but may differ in a detail not shown here. Equal entries are not always repeated. Toxic doses and inconclusive results are not listed.

System: BDF1 mice, P388 leukemia ip, median survival T/C
Experiment: NCI In Vivo Anticancer Drug Screen. Data for tumor model P388 Leukemia (intraperitoneal) in B6D2F1 (BDF1) mice
Details: endpoint: median survival time, higher = longer survival
Outline: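 Antitumour effect was judged in vivo: survival in drug-treated mice, normalised to that of vehicle-dosed controls, gives the reported T/C.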

[1] = dose: 25.0 mg/kg/injection, schedule: Q01DX009 (ip), vehicle: water
[2] = dose: 50.0 mg/kg/injection, schedule: Q01DX009 (ip), vehicle: water
[3] = dose: 200.0 mg/kg/injection, schedule: Q01DX009 (ip), vehicle: water
[4] = dose: 400.0 mg/kg/injection, schedule: Q01DX009 (ip), vehicle: water
[5] = dose: 100.0 mg/kg/injection, schedule: Q01DX009 (ip), vehicle: Klucel (hydroxypropylcellulose) (HPC)
[6] = dose: 100.0 mg/kg/injection, schedule: Q04DX003 (ip), vehicle: Klucel (hydroxypropylcellulose) (HPC)
[7] = dose: 200.0 mg/kg/injection, schedule: Q01DX009 (ip), vehicle: Klucel (hydroxypropylcellulose) (HPC)
[8] = dose: 200.0 mg/kg/injection, schedule: Q04DX003 (ip), vehicle: Klucel (hydroxypropylcellulose) (HPC)
[9] = dose: 400.0 mg/kg/injection, schedule: Q01DX009 (ip), vehicle: Klucel (hydroxypropylcellulose) (HPC)
[10] = dose: 400.0 mg/kg/injection, schedule: Q04DX003 (ip), vehicle: Klucel (hydroxypropylcellulose) (HPC)
[11] = dose: 100.0 mg/kg/injection, schedule: Q04DX002 (ip), vehicle: saline with Tween-80
[12] = dose: 200.0 mg/kg/injection, schedule: Q04DX002 (ip), vehicle: saline with Tween-80
[13] = dose: 400.0 mg/kg/injection, schedule: Q04DX002 (ip), vehicle: saline with Tween-80
[14] = dose: 50.0 mg/kg/injection, schedule: Q01DX009 (ip), vehicle: saline

CC(=O)Oc1cc(-c2ccccc2)c(OC(C)=O)cc1-c1ccccc1
T/C (dose: 6.25 mg/kg/injection, schedule: Q01DX009 (ip), vehicle: water): 109 % of control
T/C (dose: 12.5 mg/kg/injection, schedule: Q01DX009 (ip), vehicle: water): 95 % of control
T/C (dose: 12.5 mg/kg/injection, schedule: Q04DX003 (ip), vehicle: water): 89 % of control
T/C [1]: 93 % of control
T/C (dose: 25.0 mg/kg/injection, schedule: Q04DX003 (ip), vehicle: water): 89 % of control and 95 % of control
T/C [2]: 92 % of control
T/C (dose: 50.0 mg/kg/injection, schedule: Q04DX003 (ip), vehicle: water): 91 % of control and 98 % of control
T/C (dose: 100.0 mg/kg/injection, schedule: Q01DX009 (ip), vehicle: water): 94 % of control
T/C (dose: 100.0 mg/kg/injection, schedule: Q04DX003 (ip), vehicle: water): 89 % of control and 95 % of control
T/C [3]: 102 % of control
T/C (dose: 300.0 mg/kg/injection, schedule: Q01DX009 (ip), vehicle: water): 107 % of control
T/C [4]: 91 % of control

CCOC(=O)/C(O)=C(\C=N\C(N)=O)C(=O)OCC
T/C (dose: 50.0 mg/kg/injection, schedule: Q04DX003 (ip), vehicle: saline sonified): 100 % of control
T/C (dose: 100.0 mg/kg/injection, schedule: Q04DX003 (ip), vehicle: saline sonified): 105 % of control
T/C (dose: 200.0 mg/kg/injection, schedule: Q04DX003 (ip), vehicle: saline sonified): 110 % of control

O=C(c1ccccc1)C1Cc2ccccc2C1=O (stereo not given)
T/C (dose: 100.0 mg/kg/injection, schedule: Q01DX001 (ip), vehicle: Klucel (hydroxypropylcellulose) (HPC)): 100 % of control
T/C [5]: 113 % of control
T/C [6]: 100 % of control
T/C (dose: 200.0 mg/kg/injection, schedule: Q01DX001 (ip), vehicle: Klucel (hydroxypropylcellulose) (HPC)): 100 % of control
T/C [7]: 109 % of control
T/C [8]: 100 % of control
T/C (dose: 400.0 mg/kg/injection, schedule: Q01DX001 (ip), vehicle: Klucel (hydroxypropylcellulose) (HPC)): 95 % of control
T/C [9]: 118 % of control
T/C [10]: 90 % of control

O=C(NCCCCN1CC1)C(=O)NCCCCN1CC1
T/C (dose: 6.25 mg/kg/injection, schedule: Q04DX003 (ip), vehicle: Klucel (hydroxypropylcellulose) (HPC)): 188 % of control
T/C (dose: 12.5 mg/kg/injection, schedule: Q04DX003 (ip), vehicle: Klucel (hydroxypropylcellulose) (HPC)): 188 % of control
T/C (dose: 25.0 mg/kg/injection, schedule: Q04DX003 (ip), vehicle: Klucel (hydroxypropylcellulose) (HPC)): 221 % of control

CC1=NNC(=O)C1CCO (stereo not given)
T/C (dose: 50.0 mg/kg/injection, schedule: Q01DX009 (ip), vehicle: Klucel (hydroxypropylcellulose) (HPC)): 86 % of control
T/C [5]: 104 % of control
T/C (dose: 175.0 mg/kg/injection, schedule: Q01DX009 (ip), vehicle: Klucel (hydroxypropylcellulose) (HPC)): 90 % of control
T/C [7]: 122 % of control
T/C (dose: 265.0 mg/kg/injection, schedule: Q01DX009 (ip), vehicle: Klucel (hydroxypropylcellulose) (HPC)): 104 % of control
T/C [9]: 95 % of control

Cc1ccc(C(=Nc2ccccc2)c2ccccc2C)cc1
T/C [11]: 88 % of control and 100 % of control
T/C [12]: 91 % of control
T/C [13]: 86 % of control

Cc1c(N2CCCCC2)[nH]c2ccccc12
T/C (dose: 50.0 mg/kg/injection, schedule: Q04DX003 (ip), vehicle: Klucel (hydroxypropylcellulose) (HPC)): 100 % of control
T/C [6]: 100 % of control
T/C [8]: 95 % of control

CC(=N\O)/C(C)=N/O.CC(=N\O)/C(C)=N/O.O=C(O)C1CC[N-]CC1.O=C(O)C1CC[N-]CC1.O=C(O)C1CC[N-]CC1.O=C(O)C1CC[N-]CC1.[Cl-].[Cl-].[Cl][Rh][Cl].[Rh+3]
T/C [1]: 100 % of control
T/C [2]: 94 % of control
T/C [3]: 94 % of control
T/C [4]: 88 % of control

CCOC(=O)c1c/c(=C(\C)O)c(=O)n2c1nc1ccccc12
T/C [11]: 100 % of control
T/C [12]: 87 % of control
T/C [13]: 103 % of control

Cc1ccc(C=C(C(=O)CCN(C)C)C(=O)CCN(C)C)cc1
T/C (dose: 50.0 mg/kg/injection, schedule: Q01DX005 (ip), vehicle: saline): 87 % of control
T/C (dose: 100.0 mg/kg/injection, schedule: Q01DX005 (ip), vehicle: saline): 109 % of control
T/C (dose: 200.0 mg/kg/injection, schedule: Q01DX005 (ip), vehicle: saline): 119 % of control

CN(C)[C@@H]1C(=O)C(C(=O)NCN2CCN(C(=N)N=C(N)N)CC2)=C(O)[C@@]2(O)C(=O)C3=C(O)c4c(O)cccc4[C@@](C)(O)[C@H]3C[C@@H]12
T/C (dose: 0.1 mg/kg/injection, schedule: Q04DX003 (ip), vehicle: saline): 124 % of control
T/C (dose: 1.0 mg/kg/injection, schedule: Q04DX003 (ip), vehicle: saline): 120 % of control
T/C (dose: 5.0 mg/kg/injection, schedule: Q04DX003 (ip), vehicle: saline): 155 % of control

CCOC(=O)c1sc(NC(C)=O)c(C(=O)OCC)c1C
T/C [5]: 100 % of control
T/C [7]: 100 % of control
T/C [9]: 100 % of control

COc1ccc(/C=C2\NC(=O)NC2=O)cc1O
T/C (dose: 50.0 mg/kg/injection, schedule: Q01DX009 (ip), vehicle: saline with Tween-80): 106 % of control
T/C (dose: 100.0 mg/kg/injection, schedule: Q01DX009 (ip), vehicle: saline with Tween-80): 101 % of control
T/C (dose: 200.0 mg/kg/injection, schedule: Q01DX009 (ip), vehicle: saline with Tween-80): 105 % of control

COc1ccccc1C(=O)C(O)c1ccccc1OC (stereo not given)
T/C [6]: 95 % of control
T/C [8]: 104 % of control
T/C [10]: 108 % of control

CCCCCCCCCCCCCCCCOc1ccc(C(C)(C)C)cc1
T/C (dose: 37.5 mg/kg/injection, schedule: Q01DX001 (ip), vehicle: saline sonified): 100 % of control
T/C (dose: 75.0 mg/kg/injection, schedule: Q01DX001 (ip), vehicle: saline sonified): 100 % of control
T/C (dose: 150.0 mg/kg/injection, schedule: Q01DX001 (ip), vehicle: saline sonified): 100 % of control

O=C(Nc1nncs1)c1cnccn1
T/C (dose: 50.0 mg/kg/injection, schedule: Q04DX002 (ip), vehicle: saline with Tween-80): 98 % of control
T/C [11]: 97 % of control
T/C [12]: 104 % of control
T/C [13]: 168 % of control

CCOC(=O)c1c(-c2ccccc2)cn2c1OC(C)CC2(C)C (stereo not given)
T/C (dose: 50.0 mg/kg/injection, schedule: Q01DX001 (ip), vehicle: saline sonified): 100 % of control
T/C (dose: 100.0 mg/kg/injection, schedule: Q01DX001 (ip), vehicle: saline sonified): 100 % of control
T/C (dose: 200.0 mg/kg/injection, schedule: Q01DX001 (ip), vehicle: saline sonified): 95 % of control

CC(C)(C)c1ccc(/C(N)=N/O)cc1
T/C (dose: 50.0 mg/kg/injection, schedule: Q01DX005 (ip), vehicle: saline with Tween-80): 92 % of control
T/C (dose: 100.0 mg/kg/injection, schedule: Q01DX005 (ip), vehicle: saline with Tween-80): 101 % of control

CCN(CC)CCCC(C)Nc1c2ccc(Cl)cc2nc2cc(Cl)ccc12 (stereo not given)
T/C (dose: 12.5 mg/kg/injection, schedule: Q01DX009 (ip), vehicle: Klucel (hydroxypropylcellulose) (HPC)): 120 % of control

COc1cc([N+](=O)[O-])c(C)cc1NCc1ccc(OC)c(OC)c1
T/C (dose: 25.0 mg/kg/injection, schedule: Q01DX009 (ip), vehicle: saline): 100 % of control
T/C [14]: 99 % of control
T/C (dose: 100.0 mg/kg/injection, schedule: Q01DX009 (ip), vehicle: saline): 94 % of control

c1ccc(-c2ncc3cnccn23)cc1
T/C (dose: 3.12 mg/kg/injection, schedule: Q01DX009 (ip), vehicle: saline): 100 % of control
T/C (dose: 6.25 mg/kg/injection, schedule: Q01DX009 (ip), vehicle: saline): 100 % of control
T/C (dose: 12.5 mg/kg/injection, schedule: Q01DX009 (ip), vehicle: saline): 100 % of control
T/C (dose: 12.5 mg/kg/injection, schedule: Q04DX003 (ip), vehicle: saline): 114 % of control
T/C (dose: 25.0 mg/kg/injection, schedule: Q04DX003 (ip), vehicle: saline): 116 % of control
T/C [14]: 88 % of control
T/C (dose: 50.0 mg/kg/injection, schedule: Q04DX003 (ip), vehicle: saline): 105 % of control
T/C (dose: 100.0 mg/kg/injection, schedule: Q04DX003 (ip), vehicle: saline): 107 % of control

CCCCCCCCCCCC[N+](CC)(CC)CC(=O)O
T/C (dose: 33.0 mg/kg/injection, schedule: Q01DX009 (ip), vehicle: saline): 113 % of control
T/C [14]: 113 % of control

C/C=C(/Cl)c1c(C)cc(C)c(CC(=O)O)c1C
T/C [6]: 87 % of control
T/C [8]: 95 % of control
T/C [10]: 95 % of control
